From patent US12201633B2, “Compounds and methods for treatment of visceral pain” (Arena Pharmaceuticals, Inc., priority 2017, dated 2025)

What was measured:
[1] = system: capsaicin-induced hyperalgesia and allodynia; conditions: topical administration, humans; cited from earlier work
hCB1 [2] = target: T1, hCB1 (Homo sapiens, UniProt P21554); assay: Interaction with recombinant human CB1; conditions: test concentrations up to 10 μM
[3] = target: T2, recombinant CB2 receptors (dog) (Canis lupus familiaris, UniProt E2RKA3); assay: GPCR signaling assay, recombinant dog CB2; format: cell-based; conditions: GPCR signaling assays, recombinant receptor
T2 construct: other: GPCR signaling assays, recombinant receptor
Protocol: (§1) The binding affinity, potency, and selectivity of Compound A for recombinant CB2 receptors were determined using radioligand binding assays and GPCR signaling assays.

[4] = system: rats with TNBS-induced colitis and healthy rats; assay: Visceral pain model of colitis: visceromotor response to colorectal distension after TNBS; format: in vivo, rat
Protocol: Rats with active colitis display allodynia and hyperalgesia to colorectal distension following the administration of trinitrobenzene sulfonic acid (TNBS).
Abdominal electromyographic (EMG) electrode implantation is followed by measurement of visceromotor response (VMR) at 0, 20, 40, 60, and 80 mmHg of colorectal distention on day 4. The effect of each treatment on colonic compliance is also determined.
Abdominal EMG electrode implantation is followed by measurement of VMR at 0, 20, 40, 60, and 80 mmHg of colorectal distention on day 4. The effect of each treatment on colonic compliance is also determined.

[5] = target: T3, recombinant CB2 receptors (rat) (Rattus norvegicus, UniProt Q9QZN9); assay: GPCR signaling assay, recombinant rat CB2; format: cell-based; conditions: GPCR signaling assays, recombinant receptor
T3 sequence (Q9QZN9 1-360): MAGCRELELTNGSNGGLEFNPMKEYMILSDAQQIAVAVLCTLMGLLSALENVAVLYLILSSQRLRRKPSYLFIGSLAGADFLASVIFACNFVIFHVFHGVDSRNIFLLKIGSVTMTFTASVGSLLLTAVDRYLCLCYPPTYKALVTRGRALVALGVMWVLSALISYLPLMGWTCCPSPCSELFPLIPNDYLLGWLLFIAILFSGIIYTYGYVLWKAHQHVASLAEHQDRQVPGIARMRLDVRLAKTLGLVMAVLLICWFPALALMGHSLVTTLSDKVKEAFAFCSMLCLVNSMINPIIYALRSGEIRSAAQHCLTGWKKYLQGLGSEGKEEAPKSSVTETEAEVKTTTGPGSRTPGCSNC
Protocol: as §1

[6] = system: Sprague Dawley rats, acetic acid-induced writhing; assay: Acetic acid-induced writhing model of visceral pain; format: in vivo, rat; conditions: 3, 10, 30 mg/kg PO, acetic acid 1.5% IP; FIGS. 11 and 12
Protocol: Writhing is induced in male Sprague Dawley rats by administering glacial acetic acid (1.5%) intraperitoneally (IP). […] On test day, rats are placed in observation cages and administered compound according to the schedules in Tables D, F, H, and J. Treatment groups are as provided in Tables E, G, I, and K.
Studies are performed to evaluate single dose assessment (Tables D and E), maintenance of efficacy after repeated administration (Tables F and G), antagonist interactions (Tables H and I), and dose response (Tables J and K).
Writhing behavior is scored for 30 minutes in five-minute time bins.
Writhing behavior was evaluated 20 minutes later and recorded for 30 minutes (in five-minute bins).

[7] = system: male Sprague-Dawley rats, STZ-induced PDPN; assay: Streptozotocin-induced painful diabetic peripheral neuropathy (PDPN) model; format: in vivo, rat; conditions: 10 mg/kg orally in 0.5% methylcellulose; 1, 4 and 6 hours post-dosing; FIG. 9, FIG. 10
Protocol: Male Sprague-Dawley rats were injected intraperitoneally with 50 mg/kg of streptozotocin (STZ) in sodium citrate buffer. 10% sucrose water was provided ad libitum for the first 48 hours post-STZ followed by regular drinking water. Rats were monitored once weekly for blood glucose levels and body weights. Development of tactile allodynia over time was analyzed using Von Frey filaments and a 50% withdrawal threshold was determined using Dixon's up-down procedure. […] Tactile allodynia was evaluated at 1, 4 and 6 hours post-dosing.

human CB2 receptor [8] = target: T4, human CB2 receptor (Homo sapiens, UniProt P34972); assay: GPCR signaling assay, recombinant human CB2; format: cell-based
[9] = target: recombinant rat CB1 receptors (Rattus norvegicus, UniProt P20272); assay: Interaction with recombinant rat CB1; conditions: test concentrations up to 10 μM
[10] = system: recombinant dog CB1 receptors; assay: Interaction with recombinant dog CB1; conditions: test concentrations up to 10 μM
[11] = system: rats following ligation of spinal nerves; conditions: local (subcutaneous) or systemic administration; cited from earlier work
[12] = system: rodents, models of inflammatory pain; conditions: systemic delivery; cited from earlier work
CB1 = CB1 (Mus musculus, UniProt P47746); conditions: exogenous administration; cited from earlier work
human CB2 receptor [13] = target: T4, human CB2 receptor; assay: Radioligand binding assay, hCB2; set-up: 93-0164 (CHO-K1 EA-Arrestin parental line); host or cells: CHO-K1 EA-Arrestin, clone #61; conditions: Table C
Protocol: Preparation of Membranes: HTEK293 cells stably expressing human CB2 receptor were collected, washed in ice cold PBS, and centrifuged at 48,000×g for 20 min at 4° C. The cell pellet was then collected, resuspended in wash buffer (20 mM HEPES, pH 7.4 and 1 mM EDTA), homogenized on ice using a Brinkman Polytron, and centrifuged at 48,000×g for 20 min at 4° C. The resultant pellet was resuspended in ice cold 20 mM HEPES, pH 7.4, homogenized again on ice, recentrifuged for 20 min at 4° C., and membrane pellets were then stored at −80° C. until needed.
[^3H]CP55,940 and [^3H]WIN55,212-2 Radioligand Binding Assays: Radioligand binding assays for human CB2 receptors were performed using two different agonist radioligands, [^3H]CP55,940 and [^3H]WIN55,212-2 and similar assay conditions. For both assays, nonspecific binding was determined in the presence of 10 mM unlabeled compound. […] Then, 25 μL of BetaScint scintillation cocktail was added to each well, and plates were read in a Packard TopCount scintillation counter.

hCB1 [14] = target: T1, hCB1; assay: Radioligand binding assay, hCB1; conditions: Table C

T4 sequence (P34972 whole entry): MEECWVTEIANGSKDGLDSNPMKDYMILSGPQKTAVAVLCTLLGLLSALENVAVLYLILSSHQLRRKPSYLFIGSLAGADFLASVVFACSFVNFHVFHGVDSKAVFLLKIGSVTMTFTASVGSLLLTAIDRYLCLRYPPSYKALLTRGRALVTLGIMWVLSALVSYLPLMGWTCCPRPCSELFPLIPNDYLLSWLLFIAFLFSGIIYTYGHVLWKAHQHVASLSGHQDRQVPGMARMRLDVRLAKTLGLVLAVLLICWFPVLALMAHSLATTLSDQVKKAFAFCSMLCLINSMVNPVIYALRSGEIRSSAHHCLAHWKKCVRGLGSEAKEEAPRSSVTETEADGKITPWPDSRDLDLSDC
T1 sequence (P21554 whole entry): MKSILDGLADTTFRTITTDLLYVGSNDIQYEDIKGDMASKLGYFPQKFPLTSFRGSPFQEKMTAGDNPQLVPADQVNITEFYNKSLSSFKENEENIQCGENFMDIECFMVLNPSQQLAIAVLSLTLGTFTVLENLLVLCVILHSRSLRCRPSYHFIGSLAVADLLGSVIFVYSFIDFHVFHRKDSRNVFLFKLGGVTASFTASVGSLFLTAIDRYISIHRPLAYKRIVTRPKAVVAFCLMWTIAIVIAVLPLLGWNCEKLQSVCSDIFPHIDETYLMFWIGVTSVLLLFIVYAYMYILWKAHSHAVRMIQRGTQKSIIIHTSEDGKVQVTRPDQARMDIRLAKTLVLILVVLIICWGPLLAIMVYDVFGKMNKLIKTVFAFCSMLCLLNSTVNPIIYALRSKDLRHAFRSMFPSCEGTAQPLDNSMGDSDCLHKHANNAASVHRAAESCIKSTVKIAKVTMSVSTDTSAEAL
recombinant rat CB1 receptors, sequence (P20272 whole entry): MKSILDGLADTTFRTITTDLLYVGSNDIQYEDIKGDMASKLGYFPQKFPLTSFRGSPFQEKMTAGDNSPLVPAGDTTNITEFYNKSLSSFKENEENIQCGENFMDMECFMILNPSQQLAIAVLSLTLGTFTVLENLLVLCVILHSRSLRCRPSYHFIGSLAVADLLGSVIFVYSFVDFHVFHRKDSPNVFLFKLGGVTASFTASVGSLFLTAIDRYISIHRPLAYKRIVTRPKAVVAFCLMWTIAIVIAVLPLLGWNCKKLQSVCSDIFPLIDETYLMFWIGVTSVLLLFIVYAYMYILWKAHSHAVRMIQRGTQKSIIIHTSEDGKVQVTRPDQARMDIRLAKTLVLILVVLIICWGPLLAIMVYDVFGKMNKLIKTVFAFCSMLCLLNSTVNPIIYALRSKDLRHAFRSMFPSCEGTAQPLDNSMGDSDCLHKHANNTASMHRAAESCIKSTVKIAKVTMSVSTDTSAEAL
CB1, sequence (P47746 whole entry): as the sequence (P20272 whole entry) above, with E95D counted along it
T2 sequence (E2RKA3 1-360): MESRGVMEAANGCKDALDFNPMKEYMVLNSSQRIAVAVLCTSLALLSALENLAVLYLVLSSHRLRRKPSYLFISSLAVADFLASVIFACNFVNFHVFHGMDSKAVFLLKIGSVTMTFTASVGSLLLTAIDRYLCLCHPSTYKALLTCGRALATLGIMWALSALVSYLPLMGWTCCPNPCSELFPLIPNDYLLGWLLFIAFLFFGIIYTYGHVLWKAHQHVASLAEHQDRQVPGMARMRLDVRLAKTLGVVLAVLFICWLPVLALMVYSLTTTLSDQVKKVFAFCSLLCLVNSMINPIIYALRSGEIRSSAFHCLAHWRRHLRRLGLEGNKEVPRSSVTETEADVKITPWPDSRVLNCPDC

CCCCCCC(C)(C)c1cc(O)c2c(c1)OC(C)(C)[C@@H]1CC=C(CO)C[C@@H]21 [HU-210]
Capsaicin-induced hyperalgesia and allodynia [1]: attenuates capsaicin-induced hyperalgesia and allodynia

CC(C)(C)[C@@H](CO)NC(=O)c1nn(-c2c[n+]([O-])ccn2)c2c1C[C@@H]1C[C@H]21 [Compound 699, (1aS,5aS)-2-(4-Oxy-pyrazin-2-yl)-1a,2,5,5a-tetrahydro-1H-2,3-diaza-cyclopropa[a]pentalene-4-carboxylic acid ((S)-1-hydroxymethyl-2,2-dimethyl-propyl)-amide]
Interaction with recombinant human CB1 receptors (hCB1 [2]): did not interact
EC50 [3]: 6 to 8 nM
Response (VMR) in rats with healthy colons ([4]; 30 mg/kg oral gavage twice daily for five days): without changing response
Colonic hypersensitivity, dose dependence ([4]; 10 and 30 mg/kg oral gavage twice daily, rats with TNBS-induced colitis): reducing colonic hypersensitivity in a dose-dependent manner
Visceral pain response (VMR to colorectal distension), rats with TNBS-induced colitis ([4]; 10 or 30 mg/kg oral gavage twice daily for five days, FIG. 13): reduces the visceral pain response
EC50 [5]: 6 to 8 nM
Efficacy on writhing behavior [6]: efficacious
Analgesic efficacy (tactile allodynia, 50% withdrawal threshold) [7]: robust and sustained analgesic efficacy over 6 hours
Kind of activity at the CB2 receptor (human CB2 receptor [8]): full agonist
Interaction with recombinant rat CB1 receptors [9]: did not interact
Interaction with recombinant dog CB1 receptors [10]: did not interact

CN1CCCCC1Cn1cc(C(=O)c2cc([N+](=O)[O-])ccc2I)c2ccccc21 (centres unmarked) [AM1241]
Tactile and thermal hypersensitivity [11]: reverses tactile and thermal hypersensitivity
Hyperalgesia in carrageenan, capsaicin, and formalin models [12]: suppresses hyperalgesia

CCCCC/C=C\C/C=C\C/C=C\C/C=C\CCCC(=O)NCCCl [arachidonyl-2-chloroethylamide]
Effect on pain (CB1): reduces pain

CONC(=O)[C@@H](NC(=O)c1nn(-c2c[n+]([O-])ccn2)c2c1C[C@H]1C[C@@H]21)C(C)(C)C [Compound 755, (1aR,5aR)-2-(4-Oxy-pyrazin-2-yl)-1a,2,5,5a-tetrahydro-1H-2,3-diaza-cyclopropa[a]pentalene-4-carboxylic acid ((S)-1-methoxycarbamoyl-2,2-dimethyl-propyl)-amide]
Ki (human CB2 receptor [13]): 3.8 nM
Ki (hCB1 [14]): 1200 nM
